In the NIST ThermoML archive (doi:10.1016/j.fluid.2013.06.021):

Test: xn = mol fraction of the nth substance listed
Conditions: 101 kPa, Liquid; for speed of sound: Sing-around technique in a fixed-path interferometer; for mass density: Vibrating tube method; for viscosity: Capillary tube (Ostwald / Ubbelohde) method

CCCCOCCO [2-butoxyethan-1-ol] + CC(C)O
Conditions	mass density [kg/m3]	speed of sound [m/s]	viscosity [mPa·s]
293.15 K, x1 = 0.0539	796.164	1178.8	–
293.15 K, x1 = 0.1088	805.962	1190.2	–
293.15 K, x1 = 0.1607	814.567	1200.9	–
293.15 K, x1 = 0.2041	821.305	1210	–
293.15 K, x1 = 0.2567	828.971	1220.4	–
293.15 K, x1 = 0.3095	836.163	1230.7	–
293.15 K, x1 = 0.4041	847.973	1247.7	–
293.15 K, x1 = 0.5041	859.135	1263.9	–
293.15 K, x1 = 0.6113	869.832	1279.6	–
293.15 K, x1 = 0.7078	878.523	1292.2	–
293.15 K, x1 = 0.8095	886.841	1304	–
293.15 K, x1 = 0.857	890.465	1309.2	–
293.15 K, x1 = 0.9069	894.11	1314.2	–
293.15 K, x1 = 0.9527	897.317	1318.8	–
298.15 K, x1 = 0.0539	791.98	1160.9	–
298.15 K, x1 = 0.054	–	–	2.105
298.15 K, x1 = 0.1088	801.77	1172.5	2.114
298.15 K, x1 = 0.1607	810.37	1183.5	2.132
298.15 K, x1 = 0.2041	817.11	1192.6	2.145
298.15 K, x1 = 0.2567	824.79	1203	2.166
298.15 K, x1 = 0.3095	831.99	1213.2	2.184
298.15 K, x1 = 0.4041	843.83	1230.4	2.247
298.15 K, x1 = 0.5041	855	1246.6	2.327
298.15 K, x1 = 0.6113	865.69	1262.2	2.427
298.15 K, x1 = 0.7078	874.37	1274.7	–
298.15 K, x1 = 0.7079	–	–	2.538
298.15 K, x1 = 0.8095	882.67	1286.7	2.648
298.15 K, x1 = 0.857	886.29	1291.8	2.714
298.15 K, x1 = 0.9069	889.93	1296.8	2.778
298.15 K, x1 = 0.9527	893.12	1301.5	2.838
303.15 K, x1 = 0.0539	787.87	1143.4	–
303.15 K, x1 = 0.054	–	–	1.803
303.15 K, x1 = 0.1088	797.64	1155.2	1.819
303.15 K, x1 = 0.1607	806.24	1166.2	1.847
303.15 K, x1 = 0.2041	812.99	1175.3	1.866
303.15 K, x1 = 0.2567	820.65	1185.7	1.889
303.15 K, x1 = 0.3095	827.86	1195.9	1.923
303.15 K, x1 = 0.4041	839.68	1213	1.988
303.15 K, x1 = 0.5041	850.85	1229.2	2.079
303.15 K, x1 = 0.6113	861.54	1244.9	2.194
303.15 K, x1 = 0.7078	870.2	1257.7	–
303.15 K, x1 = 0.7079	–	–	2.308
303.15 K, x1 = 0.8095	878.49	1269.7	2.427
303.15 K, x1 = 0.857	882.1	1274.8	2.487
303.15 K, x1 = 0.9069	885.74	1280	2.549
303.15 K, x1 = 0.9527	888.94	1284.7	2.604
308.15 K, x1 = 0.0539	783.58	1125.5	–
308.15 K, x1 = 0.054	–	–	1.576
308.15 K, x1 = 0.1088	793.36	1137.7	1.587
308.15 K, x1 = 0.1607	801.96	1148.9	1.606
308.15 K, x1 = 0.2041	808.71	1157.9	1.624
308.15 K, x1 = 0.2567	816.4	1168.5	1.654
308.15 K, x1 = 0.3095	823.61	1178.8	1.678
308.15 K, x1 = 0.4041	835.44	1195.9	1.734
308.15 K, x1 = 0.5041	846.62	1212.1	1.809
308.15 K, x1 = 0.6113	857.32	1228	1.886
308.15 K, x1 = 0.7078	865.98	1240.6	–
308.15 K, x1 = 0.7079	–	–	1.968
308.15 K, x1 = 0.8095	874.28	1252.6	2.056
308.15 K, x1 = 0.857	877.88	1257.8	2.101
308.15 K, x1 = 0.9069	881.52	1263	2.145
308.15 K, x1 = 0.9527	884.72	1267.7	2.188
313.15 K, x1 = 0.0539	778.94	1108	–
313.15 K, x1 = 0.1088	788.77	1120.2	–
313.15 K, x1 = 0.1607	797.4	1131.4	–
313.15 K, x1 = 0.2041	804.16	1140.5	–
313.15 K, x1 = 0.2567	811.87	1151.3	–
313.15 K, x1 = 0.3095	819.11	1161.5	–
313.15 K, x1 = 0.4041	830.99	1178.7	–
313.15 K, x1 = 0.5041	842.22	1195.1	–
313.15 K, x1 = 0.6113	852.97	1211.1	–
313.15 K, x1 = 0.7078	861.66	1223.7	–
313.15 K, x1 = 0.8095	870.01	1235.8	–
313.15 K, x1 = 0.857	873.63	1241	–
313.15 K, x1 = 0.9069	877.27	1246.2	–
313.15 K, x1 = 0.9527	880.47	1250.8	–
